Assays:
CD36-deficient Tregs [1] = assay: Viability of iTregs in cancer cell-conditioned medium with or without NR; type: cell-based, mice; conditions: NR 400 μM, 72 hrs (FIG. 3i)
Description: Cancer cell-conditioned medium and iTreg culture. iTregs were generated by activating naïve CD4^+ T cells with Dynabeads conjugated with anti-CD3 and anti-CD28 mAbs (ThermoFisher) in RMPI media supplemented with 10% FBS, 10 ng/ml TGFβ and 50 U/ml IL-2 for three days. Then activated CD 4^+ T cells were maintained in RPMI media plus 10% FBS and 50 U/ml IL-2 for another 2 days. […] The survival and NAD/NADH levels of iTregs were then determined by live/dead staining and ELISA kits, respectively. For NAD/NADH measurement in CD36-KO iTregs treated with PPARβ agonist, sorted iTregs were cultured in cancer cell-conditioned medium in the presence of DMSO or GW50156 for 48 h. Control RPMI for iTreg in vitro treatment was prepared with RPMI 1640 medium (Biological Industries) supplementing with 2 mM Glucose, 10 mM Glutamine, 10% Dialyzed FBS, 0.1% β-ME, and indicated levels of lactic acids. YUMM1.7 cancer cell-conditioned medium was collected by incubating YUMM1.7 cells (70-80% density) with control RPMI described above for 18 h. Then, culture medium was collected and centrifuged at 2000 rpm for 15 min to remove debris and cancer cells as cancer cell-conditioned medium. YUMM1.7 cancer cell-conditioned medium collected as described above was treated with Cleanascite™ reagent (Biotech Support Group) prior to Treg culture at a volume ratio of 1:5 according to the manufacturer's instruction.

YUMM1.7 melanoma = assay: YUMM1.7 melanoma-engrafted mice treated with PPARβ selective agonist; type: in vivo
Description: Tumor engraftment and treatment of tumor-bearing mice. For tumor induction, 3-week-old Braf/Pten mice were treated with 4-hydroxytamoxifen on the skin surface as described before to induce tumor formation (Ho, P. C. et al. Cancer Res 74, 3205-3217 (2014)). For tumor engraftment, 5×10^4 cells YUMM1.7, B 16-OVA, or one million MC38 tumor cells were injected subcutaneously in 50 μl PBS. Tumors were measured every 2-3 days post tumor engraftment or indicated treatments and calculated. Tumor volume was calculated by volume=(length×width^2 )/2 for engrafted tumor or volume=(length×width×height) for inducible tumor. For in vivo treatment, Yumm 1.7-bearing mice were administrated every 3 days with either DMSO or PPARβ agonist (GW 501516) (1 mg per kg of body weight, Cayman Chemical) by intraperitoneal injection. For antibody-based treatment, tumor-bearing mice were treated with anti-PD-1 antibody (200 μg per injection, BioXcell, clone 29F.1A12) and anti-CD36 antibody (200 μg per injection, clone CRF D-2712 (Driscoll, W. S., et al. Circulation research 113, 52-61 (2013)) according to indicated combination by intraperitoneal injection. For antibody treatment in the Braf/Pten mouse model, four weeks after tumor induction, tumor-bearing Braf/Pten mice were treated with anti-CD36 antibody and/or anti-PD-1 antibody as indicated above for a period of 10 days. All experiments were conducted according to Swiss federal regulations.
Tumor digestion and cell isolation. Tumors were minced into small pieces in RPMI containing 2% FBS, 1% penicillin-streptomycin (p/s), DNase I (1 μg/ml, Sigma-Aldrich), and collagenase (0.5 mg/ml, Sigma-Aldrich) and kept for digestion for 40 min at 37° C., followed by the filtration with a 70 μm cell strainer. Filtered cells were incubated with ACK lysis buffer (Invitrogen) to lyse red blood cells and then washed with fluorescent activated cell sorter (FACS) buffer (phosphate-buffered saline with 2% fetal bovine serum and 2 mM EDTA). Tumor-infiltrating leukocytes were further enriched by percoll density gradient centrifugation (800×g, 30 min) at room temperature as described before (Cheng, W. C. et al. Nat Immunol 20, 206-217 (2019)).
Flow cytometry, cell sorting, and antibodies. Single cell suspensions were incubated with Fc receptor-blocking anti-CD16/32 (93) and anti-CD351 (TX61) antibodies (Biolegend) on ice for 10 min before staining. Cell suspensions were first stained with LIVE/DEAD® Fixable Violet Dead Cell Stain Kit (ThermoFisher) at 37° C. for 10 min. After washing, surface proteins were stained for 30 min at 4° C. […] Samples were analyzed on LSRII flow cytometers (BD Biosciences) and data were analyzed with FlowJo. […]

CD36-deficient Tregs [2] = assay: NAD/NADH measurement in CD36-deficient iTregs cultured in cancer cell-conditioned medium; type: cell-based, mice; conditions: 48 h, vs DMSO
Description: Cancer cell-conditioned medium and iTreg culture. iTregs were generated by activating naïve CD4^+ T cells with Dynabeads conjugated with anti-CD3 and anti-CD28 mAbs (ThermoFisher) in RMPI media supplemented with 10% FBS, 10 ng/ml TGFβ and 50 U/ml IL-2 for three days. Then activated CD 4^+ T cells were maintained in RPMI media plus 10% FBS and 50 U/ml IL-2 for another 2 days. Differentiated iTregs were firstly sorted by using FACS cell sorter and then incubated in indicated culture condition for 48 h. The survival and NAD/NADH levels of iTregs were then determined by live/dead staining and ELISA kits, respectively. For NAD/NADH measurement in CD36-KO iTregs treated with PPARβ agonist, sorted iTregs were cultured in cancer cell-conditioned medium in the presence of DMSO or GW50156 for 48 h. […]
NAD and NADH measurement. The ratio of nicotinamide adenine dinucleotide (NAD) and nicotinamide adenine dinucleotide […] (NADH) was measured by using the commercial NAD/NADH Quantification Kit (Sigma-Aldrich MAK037). […]
decomposition. The samples were then transferred to a 96 wells plate for measuring the absorbance of 450 nm. […] The ratio of NAD/NADH in a sample could be determined by the following equation: ratio=(NADtotal−NADH)/NADH.

| cleaved caspase-3 in intratumoral Tregs (YUMM1.7 melanoma; Treg^CD36−/− mice (FIG. 4i)) | SMILES | viability of CD36-deficient Tregs exposed to cancer cell-conditioned medium (CD36-deficient Tregs [1]) | mitochondrial membrane potential of intratumoral Tregs (MitoTracker Deep Red staining) (YUMM1.7 melanoma; Treg^CD36−/− mice (FIG. 4h)) | intratumoral Treg abundance (FoxP3+ Tregs among CD4+ tumor-infiltrating T lymphocytes) (YUMM1.7 melanoma; Treg^CD36−/− mice, 1 mg per kg i.p. every 3 days, two weeks (FIG. 4g)) | tumor growth (YUMM1.7 melanoma; Treg^CD36−/− mice, 1 mg per kg i.p. every 3 days, two weeks, vs control vehicle (FIG. 4f)) | NAD/NADH ratio (CD36-deficient Tregs [2]) |
| --- | --- | --- | --- | --- | --- | --- |
| – | NC(=O)c1ccc[n+]([C@@H]2O[C@H](CO)[C@@H](O)[C@H]2O)c1 [nicotinamide riboside] | partially rescued the viability | – | – | – | – |
| lower levels | Cc1cc(SCc2sc(-c3ccc(C(F)(F)F)cc3)nc2C)ccc1OCC(=O)O [GW501516] | – | increased mitochondrial membrane potentials | restored | restored tumor growth | increased NAD/NADH ratios |

Source: patent US20260146102A1, “METHODS FOR MODULATING REGULATORY T CELLS” (Universite de Lausanne, priority 2018, published 2026)
